Test results published in patent US8637664B2, “Alkyl 4- [4- (5-oxo-2,3,5, 11a-tetrahydo-5H-pyrrolo [2, 1-c] [1,4] benzodiazepine-8-yloxy)-butyrylamino]-1H-pyrrole-2-carboxylate derivatives and related compounds for the treatment of a proliferative disease” (Spirogen SARL, priority 2005, dated 2014).
Where two headings read alike, the source gives them in different places. Marks after values point to notes of the source that are not given here.

Columns and labels:
[1] = test system: calf thymus DNA (CT-DNA); test: DNA thermal denaturation (melting) studies; type: binding; conditions: CT-DNA 100 μM DNAp, compound 20 μM, 37 °C; for Induced ΔTm after incubation 0 hours: pH 7.00, 0 hours; for Induced ΔTm after incubation 4 hours: pH 7.00, 4 hours; for Induced ΔTm after incubation 18 hours: pH 7.00, 18 hours; for Induced ΔTm after incubation 72 hours: pH 7.00, 72 hours
Procedure: The PBD agents were subjected to DNA thermal melting (denaturation) studies (Gregson, S. J., et al., Journal of Medicinal Chemistry, 44(5), 737-748 (2001); Jones, G. B., et al., Anti-Cancer Drug Design, 5(3), 249-264 (1990); McConnaughie, A. W. and; Jenkins, T. C. Journal of Medicinal Chemistry, 38(18), 3488-3501 (1995)) using calf thymus DNA (CT-DNA, type-1, highly polymerized sodium salt; 42% G+C [Sigma]) at a fixed 100 μM (DNAp=50 μM bp) concentration, determined using an extinction coefficient of 6600 (M phosphate)^−1 cm^−1 at 260 nm (Manzini, G., et al., Nucleic Acids Research, 11(24), 8861-8876 (1983)). Solutions were prepared in pH 7.00±0.01 aqueous buffer containing 10 mM NaH2PO4/Na2HPO4 and 1 mM EDTA. Working solutions containing CT-DNA and the test compound (20 μM) were incubated at 37.0±0.1° C. for 0 to 18 hours using an external water bath. Samples were monitored at 260 nm using a Varian-Cary 400 Bio spectrophotometer fitted with a Peltier heating accessory. Heating was applied at a rate of 1° C./min in the 45 to 98° C. temperature range, with optical and temperature data sampling at 200 ms intervals. A separate experiment was carried out using buffer alone, and this baseline was subtracted from each DNA melting curve before data treatment. Optical data were imported into the Origin 5 program (MicroCal Inc., Northampton, Mass.) for analysis. DNA helix→coil transition temperatures (Tm) were determined at the midpoint of the normalized melting profiles using a published analytical procedure (Jones, G. B., et al., Anti-Cancer Drug Design, 5(3), 249-264 (1990)). Results are given in table 1 as the mean±standard deviation from at least three determinations. Ligand-induced alterations in DNA melting behaviour (ΔTm) are given by ΔTm=Tm(DNA+ligand)−Tm(DNA), where the Tm value determined for free CT-DNA is 67.82±0.06° C. (averaged from >90 runs). All PBD compounds were dissolved in HPLC-grade MeOH to give working solutions containing ≦0.6% v/v MeOH; Tm results were corrected for the effects of MeOH co-solvent by using a linear correction term.
The above method was also carried out on the compounds of example 2, with all compounds being incubated for up to 72 hours.

[2] = test system: K562 human chronic myeloid leukaemia cells; test: In vitro cytotoxicity, MTT assay; type: cell-based; conditions: K562, 1 hour drug exposure, MTT after 4 days
Procedure: K562 human chronic myeloid leukaemia cells were maintained in RPM1 1640 medium supplemented with 10% fetal calf serum and 2 mM glutamine at 37° C. in a humidified atmosphere containing 5% CO2 and were incubated with a specified dose of drug for 1 hour at 37° C. in the dark. The incubation was terminated by centrifugation (5 min, 300 g) and the cells were washed once with drug-free medium. Following the appropriate drug treatment, the cells were transferred to 96-well microtiter plates (10^4 cells per well, 8 wells per sample). Plates were then kept in the dark at 37° C. in a humidified atmosphere containing 5% CO2. The assay is based on the ability of viable cells to reduce a yellow soluble tetrazolium salt, 3-(4,5-dimethylthiazol-2-yl)-2,5-diphenyl-2H-tetrazolium bromide (MTT, Aldrich-Sigma), to an insoluble purple formazan precipitate. Following incubation of the plates for 4 days (to allow control cells to increase in number by approximately 10 fold), 20 μL of MTT solution (5 mg/mL in phosphate-buffered saline) was added to each well and the plates further incubated for 5 hours. The plates were then centrifuged for 5 minutes at 300 g and the bulk of the medium pipetted from the cell pellet leaving 10-20 μL per well. DMSO (200 μL) was added to each well and the samples agitated to ensure complete mixing. The optical density was then read at a wavelength of 550 nm on a Titertek Multiscan ELISA plate reader, and a dose-response curve was constructed.

[3] = test system: 170 bp sequence of the human Topo-IIa promoter; test: DNase I footprinting on Topo-IIa promoter (ICB1, ICB2 sites); type: binding; conditions: for Concentration at which DNA binding is observed, ICB1: ICB1 site; for Concentration at which DNA binding is observed, ICB2: ICB2 site
Procedure: In a similar manner to Example 4, the affinity and sequence selectivity of certain compounds of examples 1 and 2 was evaluated by standard DNA footprinting on a 170 bp sequence of the human Topo-IIa promoter, in accordance with the technique described in Martin, C., et al.
Selected results are shown in FIG. 9, wherein the concentrations of the lanes were 0, 1.6, 8, 40, 200, 1000, 5000 and 25000 nM in each case.
The footprinting results allowed the identification of compounds that could potentially disrupt transcription factor binding at the ICB1 and ICB2 sites. […] These compounds are detailed below in table 3, showing the concentrations (μM) at which the PBD-heterocycle conjugates bind at ICB1 and ICB2.

[4] = test system: NF-Y binding at ICB2 of Topoisomerase IIα promoter; test: NF-Y gel shift assay (EMSA) at ICB2
[5] = biological target: 262 bp DNA fragment (MS2F or MS2R) of MS2 plasmid; test: DNase I footprinting on MS2 DNA fragment; type: binding
Procedure: The sequence selectivity of the six PBD-pyrrole conjugates (21, 23, 25, 27, 29) was evaluated by standard DNA footprinting on a fragment of MS2 as follows, in accordance with the technique described in Martin, C., et al., (Martin, C., et al., Biochemistry, 44(11), 4135-4147 (2005))
Forward (5′-[…]-3′) or reverse (5′-[…]-3′) primer was 5′-end labelled with ^32P by T4 polynucleotide kinase. Labelling mixture contained primer (5 pmol; Sigma-Genosys), 10× kinase buffer (1 μl; Promega), (γ-^32P)-ATP (2μ of 10 μCi/μl, 6000 Ci/mmol; Perkin Elmer Life Sciences), and T4 polynucleotide kinase (10 U; Promega) in a 10 μl final volume. Labelling mix was incubated at 37° C. for 30 minutes followed by inactivation of the kinase at 70° C. for 10 minutes. A 262 bp DNA fragment (MS2F or MS2R) was amplified from the MS2 plasmid using PCR with either labelled forward or reverse primer and the unlabelled primer as required. Reactions were comprised of labelled primer mix (10 μl), 10×PCR buffer (5 μl; Sigma), dNTPs (5 μl; 2.5 mM each of A, C, G and T, Amersham Pharmacia), unlabelled primer as required ([…]), MS2 plasmid template DNA (10 ng) and Taq DNA polymerase (5 U; Sigma) in a 50 μl final volume. Radiolabelled 262-mer was purified by non-denaturing polyacrylamide gel electrophoresis, elution, filtration and EtOH precipitation and was resuspended in a solution of Tris-HCl (10 mM) pH 7.4/NaCl (10 mM) to yield an activity of 200 counts per second per 5 μl when held up, in a pipette tip, to a capped Morgan series 900 mini-monitor.
For DNase I footprinting radiolabelled 262-mer (2 μl) was incubated overnight (16-18 h) with drug solution (388 μl) or in an aqueous buffer [HEPES (20 mM) pH 7.9, NaCl (50 mM), MgCl2 (1 mM), DTT (5 mM), 10% glycerol] in control reactions. Enzymatic cleavage was initiated by addition of DNase I solution (10 μl of 0.05 U/ml; Sigma) in aqueous NaCl (200 mM), MgCl2 (20 mM) and MnCl2 (20 mM) and halted with stop solution [40 μl of NaCl (2.25 M), EDTA (150 mM) pH 8.0, 0.57 μg/μl glycogen (0.57 μg/μl; Roche), poly(dl-dC).poly(dl-dC) DNA (19.3 ng/μl; Amersham Pharmacia)]. From this mixture, digested DNA fragments were prepared for electrophoresis following the protocol of Trauger & Dervan, and were loaded on to a preheated 8% denaturing polyacrylamide gel. Electrophoresis in 1×TBE buffer was allowed to proceed for 100 min at 70 W (1600-2000 V). The gel was the fixed in acetic acid (10% v/v) and methanol (10% v/v) for 15 minutes followed by being blotted onto Whatman 3 mM paper and vacuum-dried at 80° C. for 45 minutes.
Dried gels were stored at room temperature in phosphor storage screens (Molecular Dynamics) for a minimum period of 12 h. Data were collected from exposed screens using a Molecular Dynamics 425E Phosphorlmager and transferred to ImageQuant v1.2 software (Molecular Dynamics) for analysis. Data were expressed as the differential cleavage between control and sample lanes. Peaks were integrated and differential cleavage calculated as ln(fd)−ln(fc); (fd is the fractional cleavage at any particular bond in the presence of drug and fc is the fractional cleavage of the same bond in the control). Maxam-Gilbert G+A marker lanes were prepared in the usual fashion.
The vast majority of footprint sites are common features in the binding profiles of all six conjugates, with only a small number of sites being footprinted by a subset of the family. Even more unexpectedly, no site is footprinted by only one molecule (in fact, the fewest number of conjugates that bind at any single site is four). The differential cleavage plot provides footprinting profiles at a supramaximal concentration colour-coded for each conjugate which illustrates a striking degree of overlap. Although there is no conspicuous change in footprinting patterns as the number of pyrroles units in each conjugate increases, there are changes in two other features, namely, the apparent binding affinity and the width of the footprinted site. […]

| Compound | Induced ΔTm after incubation 0 hours [1] [°C] | Induced ΔTm after incubation 4 hours [1] [°C] | Induced ΔTm after incubation 18 hours [1] | IC50 [2] [µM] | Induced ΔTm after incubation 72 hours [1] [°C] | Concentration at which DNA binding is observed, ICB1 [3] [µM] | Concentration at which DNA binding is observed, ICB2 [3] [µM] | Lowest concentration at which NF-Y binding inhibition was observed [4] [µM] | IC50 ([5]; read-out: DNase IC50 (apparent binding affinity; 50% inhibition of DNase I-mediated cleavage), estimated by eye, site 5′-62CAATACACA70-3′) [µM] | IC50 ([5]; estimated by eye from footprint gel, read-out: DNase IC50 (apparent binding affinity)) [µM] | IC50 ([2]; Homo sapiens) [µM] |
| --- | --- | --- | --- | --- | --- | --- | --- | --- | --- | --- | --- |
| COC(=O)c1cc(NC(=O)c2cc(NC(=O)c3cc(NC(=O)c4cc(NC(=O)c5cc(NC(=O)CCCOc6cc7c(cc6OC)C(=O)N6CCC[C@H]6C=N7)cn5C)cn4C)cn3C)cn2C)cn1C [Compound 29, (11aS) Methyl 4-({4-[(4-{[4-({4-[4-(7-Methoxy-5-oxo-2,3,5,11a-tetrahydro-5H-pyrrolo[2,1-c][1,4]benzodiazepine-8-yloxy)-butyrylamino]-1-methyl-1H-pyrrole-2-carbonyl]-amino)-1-methyl-1H-pyrrole-2-carbonyl]-amino}-1-methyl-1H-pyrrole-2-carbonyl)-amino]-1-methyl-1H-pyrrole-2-carbonyl}-amino)-1-methyl-1H-pyrrole-2-carboxylate] | 15.1 | 15.9 | 17.1 °C | 0.083 |  |  |  |  |  |  |  |
| COC(=O)c1cc(NC(=O)c2nc(NC(=O)c3cc(NC(=O)CCCOc4cc5c(cc4OC)C(=O)N4CCC[C@H]4C=N5)cn3C)cn2C)cn1C [Compound 71] | 15.5 | 16.0 | 16.9 °C |  | 17.2 | 1 | 5 | 10 |  |  |  |
| COC(=O)c1cc(NC(=O)c2cc(NC(=O)c3cc(NC(=O)c4cc(NC(=O)CCCOc5cc6c(cc5OC)C(=O)N5CCC[C@H]5C=N6)cn4C)cn3C)cn2C)cn1C [Compound 27, (11aS) Methyl 4-[(4-{[4-({4-[4-(7-Methoxy-5-oxo-2,3,5,11a-tetrahydro-5H-pyrrolo[2,1-c][1,4]benzodiazepine-8-yloxy)-butyrylamino]-1-methyl-1H-pyrrole-2-carbonyl]-amino)-1-methyl-1H-pyrrole-2-carbonyl]-amino}-1-methyl-1H-pyrrole-2-carbonyl)-amino]-1-methyl-1H-pyrrole-2-carboxylate] | 16.0 | 18.5 | 19.0^y ° C. | 0.047 |  |  |  |  | ~0.03 |  |  |
| COC(=O)c1cc(NC(=O)c2csc(NC(=O)c3cc(NC(=O)CCCOc4cc5c(cc4OC)C(=O)N4CCC[C@H]4C=N5)cn3C)n2)cn1C [Compound 73] | 18.5 | 19.9 | 20.7 °C |  | 20.9 | 5 | 1 | 10 |  |  |  |
| COC(=O)c1cc(NC(=O)CCCOc2cc3c(cc2OC)C(=O)N2CCC[C@H]2C=N3)cn1C [Compound 21, (11aS) Methyl 4-[4-(7-methoxy-5-oxo-2,3,5,11a-tetrahydro-5H-pyrrolo[2,1-c][1,4]benzodiazepine-8-yloxy)-butyrylamino]-1-methyl-1H-pyrrole-2-carboxylate] | 6.5 | 7.9 | 8.1 °C |  |  |  |  |  |  | ≥ 10 | 0.051 |
